Converted amounts (≈) assume the structure as drawn.
Assays:
[1] = biological target: T1, Voltage-gated inwardly rectifying potassium channel KCNH2 (Homo sapiens, UniProt Q12809); experiment: Displacement of MK499 from human ERG
Escherichia coli = experiment: Antibacterial activity against Escherichia coli ATCC 25922; type: functional
Streptococcus pneumoniae = experiment: Antibacterial activity against Streptococcus pneumoniae IID554; type: functional
Enterococcus faecalis = experiment: Antibacterial activity against Enterococcus faecalis ATCC 29212; type: functional
Staphylococcus aureus [2] = experiment: Antibacterial activity against Staphylococcus aureus Smith; type: functional
Moraxella catarrhalis = experiment: Antibacterial activity against Moraxella catarrhalis ATCC 25238; type: functional
Pseudomonas aeruginosa = experiment: Antibacterial activity against Pseudomonas aeruginosa PAO1; type: functional
Acinetobacter baumannii = experiment: Antibacterial activity against Acinetobacter baumannii IID876; type: functional
[3] = biological target: T1, Voltage-gated inwardly rectifying potassium channel KCNH2; experiment: Inhibition of human ERG expressed in CHO cells measured over 5 mins by patch clamp assay
Enterococcus faecium = experiment: Antibacterial activity against VanA-type vancomycin-resistant Enterococcus faecium A2373; type: functional
Haemophilus influenzae = experiment: Antibacterial activity against Haemophilus influenzae ATCC 49247; type: functional
Staphylococcus aureus [4] = experiment: Ratio of MIC for quinolone-resistant Staphylococcus aureus MS5935 to MIC for quinolone-sensitive Staphylococcus aureus; type: functional
[5] = Escherichia coli, ATCC 25922, read-out: MIC
[6] = Streptococcus pneumoniae, IID554, read-out: MIC
[7] = Enterococcus faecalis, ATCC 29212, read-out: MIC
[8] = Staphylococcus aureus, Smith, read-out: MIC
[9] = Moraxella catarrhalis, ATCC 25238, read-out: MIC
[10] = Pseudomonas aeruginosa, PAO1, read-out: MIC
[11] = Acinetobacter baumannii, IID876, read-out: MIC
[12] = Enterococcus faecium, A2373, read-out: MIC
[13] = Haemophilus influenzae, ATCC 49247, read-out: MIC

T1 sequence (Q12809 whole entry): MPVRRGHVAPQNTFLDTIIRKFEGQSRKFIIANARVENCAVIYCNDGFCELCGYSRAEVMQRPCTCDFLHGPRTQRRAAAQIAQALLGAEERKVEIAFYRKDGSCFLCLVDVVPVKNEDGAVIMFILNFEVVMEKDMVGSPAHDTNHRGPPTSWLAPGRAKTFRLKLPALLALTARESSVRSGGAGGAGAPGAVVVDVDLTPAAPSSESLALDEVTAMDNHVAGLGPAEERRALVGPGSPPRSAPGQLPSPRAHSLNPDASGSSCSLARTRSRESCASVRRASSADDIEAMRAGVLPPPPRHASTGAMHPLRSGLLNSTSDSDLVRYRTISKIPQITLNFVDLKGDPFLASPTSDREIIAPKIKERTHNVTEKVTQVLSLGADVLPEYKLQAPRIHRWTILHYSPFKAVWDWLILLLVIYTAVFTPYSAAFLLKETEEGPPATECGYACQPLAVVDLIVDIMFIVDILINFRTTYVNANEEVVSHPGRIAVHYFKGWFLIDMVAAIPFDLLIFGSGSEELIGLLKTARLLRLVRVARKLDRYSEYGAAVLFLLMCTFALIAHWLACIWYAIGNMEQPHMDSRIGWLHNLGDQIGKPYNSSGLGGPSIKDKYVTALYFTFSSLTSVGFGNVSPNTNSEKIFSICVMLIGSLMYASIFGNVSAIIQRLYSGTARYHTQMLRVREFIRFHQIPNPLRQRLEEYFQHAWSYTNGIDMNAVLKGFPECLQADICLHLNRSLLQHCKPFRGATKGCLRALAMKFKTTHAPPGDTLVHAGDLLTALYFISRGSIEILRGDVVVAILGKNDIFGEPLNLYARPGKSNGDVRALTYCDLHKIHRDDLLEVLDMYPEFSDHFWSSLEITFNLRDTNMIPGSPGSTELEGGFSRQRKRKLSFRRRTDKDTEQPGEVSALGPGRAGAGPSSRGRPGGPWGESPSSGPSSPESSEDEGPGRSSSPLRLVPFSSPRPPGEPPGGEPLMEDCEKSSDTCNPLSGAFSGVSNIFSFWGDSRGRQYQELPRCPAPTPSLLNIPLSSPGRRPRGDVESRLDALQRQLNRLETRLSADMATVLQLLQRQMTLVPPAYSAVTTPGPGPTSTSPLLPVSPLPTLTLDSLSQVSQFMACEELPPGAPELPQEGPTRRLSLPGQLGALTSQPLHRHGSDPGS

O=c1ccc2ncc(F)c3c2n1C[C@@]3(O)CC12CCC(NCc3cc4c(cn3)OCCS4(=O)=O)(CC1)CO2
IC50 [1]: > 60 µM
MIC (Escherichia coli; [5]): 32 µg/mL (≈ 59 µM)
MIC (Streptococcus pneumoniae; [6]): 4 µg/mL (≈ 7.37 µM)
MIC (Enterococcus faecalis; [7]): 32 µg/mL (≈ 59 µM)
MIC (Staphylococcus aureus [2]; [8]): 8 µg/mL (≈ 14.7 µM)
MIC (Moraxella catarrhalis; [9]): 32 µg/mL (≈ 59 µM)
MIC (Pseudomonas aeruginosa; [10]): 32 µg/mL (≈ 59 µM)
MIC (Acinetobacter baumannii; [11]): 32 µg/mL (≈ 59 µM)
IC50 [3]: > 60 µM
MIC (Enterococcus faecium; [12]): 32 µg/mL (≈ 59 µM)
MIC (Haemophilus influenzae; [13]): 32 µg/mL (≈ 59 µM)
Ratio (Staphylococcus aureus [4]): <4

O=c1ccc2ncc(F)c3c2n1C[C@@]3(O)CC12CCC(NCc3cc4c(cn3)S(=O)(=O)CCO4)(CC1)CO2
IC50 [1]: > 60 µM
MIC (Escherichia coli; [5]): 32 µg/mL (≈ 59 µM)
MIC (Streptococcus pneumoniae; [6]): 32 µg/mL (≈ 59 µM)
MIC (Enterococcus faecalis; [7]): 32 µg/mL (≈ 59 µM)
MIC (Staphylococcus aureus [2]; [8]): 8 µg/mL (≈ 14.7 µM)
MIC (Moraxella catarrhalis; [9]): 32 µg/mL (≈ 59 µM)
MIC (Pseudomonas aeruginosa; [10]): 32 µg/mL (≈ 59 µM)
MIC (Acinetobacter baumannii; [11]): 32 µg/mL (≈ 59 µM)
IC50 [3]: > 60 µM
MIC (Enterococcus faecium; [12]): 32 µg/mL (≈ 59 µM)
MIC (Haemophilus influenzae; [13]): 32 µg/mL (≈ 59 µM)
Ratio (Staphylococcus aureus [4]): <4

O=c1ccc2ncc(F)c3c2n1C[C@@]3(O)CC12CCC(NCc3cc4c(nn3)OCCO4)(CC1)CO2
MIC (Escherichia coli; [5]): 32 µg/mL (≈ 64.6 µM)
MIC (Streptococcus pneumoniae; [6]): 2 µg/mL (≈ 4.04 µM)
MIC (Enterococcus faecalis; [7]): 8 µg/mL (≈ 16.1 µM)
MIC (Staphylococcus aureus [2]; [8]): 4 µg/mL (≈ 8.07 µM)
MIC (Moraxella catarrhalis; [9]): 32 µg/mL (≈ 64.6 µM)
MIC (Pseudomonas aeruginosa; [10]): 32 µg/mL (≈ 64.6 µM)
MIC (Acinetobacter baumannii; [11]): 32 µg/mL (≈ 64.6 µM)
MIC (Enterococcus faecium; [12]): 32 µg/mL (≈ 64.6 µM)
MIC (Haemophilus influenzae; [13]): 32 µg/mL (≈ 64.6 µM)

O=c1ccc2ncc(F)c3c2n1C[C@@]3(O)CC12CCC(NCc3ncc4c(n3)OCCO4)(CC1)CO2
MIC (Escherichia coli; [5]): 32 µg/mL (≈ 64.6 µM)
MIC (Streptococcus pneumoniae; [6]): 4 µg/mL (≈ 8.07 µM)
MIC (Enterococcus faecalis; [7]): 32 µg/mL (≈ 64.6 µM)
MIC (Staphylococcus aureus [2]; [8]): 8 µg/mL (≈ 16.1 µM)
MIC (Moraxella catarrhalis; [9]): 32 µg/mL (≈ 64.6 µM)
MIC (Pseudomonas aeruginosa; [10]): 32 µg/mL (≈ 64.6 µM)
MIC (Acinetobacter baumannii; [11]): 32 µg/mL (≈ 64.6 µM)
MIC (Enterococcus faecium; [12]): 32 µg/mL (≈ 64.6 µM)
MIC (Haemophilus influenzae; [13]): 32 µg/mL (≈ 64.6 µM)

O=c1ccc2ncc(F)c3c2n1C[C@@]3(O)CC12CCC(NCc3ccc4c(c3Cl)OCCO4)(CC1)CO2
MIC (Escherichia coli; [5]): 32 µg/mL (≈ 60.6 µM)
MIC (Streptococcus pneumoniae; [6]): 1 µg/mL (≈ 1.89 µM)
MIC (Enterococcus faecalis; [7]): 8 µg/mL (≈ 15.2 µM)
MIC (Staphylococcus aureus [2]; [8]): 1 µg/mL (≈ 1.89 µM)
MIC (Moraxella catarrhalis; [9]): 32 µg/mL (≈ 60.6 µM)
MIC (Pseudomonas aeruginosa; [10]): 32 µg/mL (≈ 60.6 µM)
MIC (Acinetobacter baumannii; [11]): 32 µg/mL (≈ 60.6 µM)
MIC (Enterococcus faecium; [12]): 32 µg/mL (≈ 60.6 µM)
MIC (Haemophilus influenzae; [13]): 32 µg/mL (≈ 60.6 µM)

O=c1ccc2ncc(F)c3c2n1C[C@@]3(O)CC12CCC(NCc3ccc4c(n3)OCCN4)(CC1)CO2
MIC (Escherichia coli; [5]): 32 µg/mL (≈ 64.8 µM)
MIC (Streptococcus pneumoniae; [6]): 8 µg/mL (≈ 16.2 µM)
MIC (Enterococcus faecalis; [7]): 32 µg/mL (≈ 64.8 µM)
MIC (Staphylococcus aureus [2]; [8]): 8 µg/mL (≈ 16.2 µM)
MIC (Moraxella catarrhalis; [9]): 32 µg/mL (≈ 64.8 µM)
MIC (Pseudomonas aeruginosa; [10]): 32 µg/mL (≈ 64.8 µM)
MIC (Acinetobacter baumannii; [11]): 32 µg/mL (≈ 64.8 µM)
MIC (Enterococcus faecium; [12]): 32 µg/mL (≈ 64.8 µM)
MIC (Haemophilus influenzae; [13]): 32 µg/mL (≈ 64.8 µM)
Ratio (Staphylococcus aureus [4]): <4

O=c1ccc2ncc(F)c3c2n1C[C@@]3(O)CC12CCC(NCc3ccc4c(n3)NCCN4)(CC1)CO2
IC50 [1]: > 60 µM
MIC (Escherichia coli; [5]): 32 µg/mL (≈ 65 µM)
MIC (Streptococcus pneumoniae; [6]): 16 µg/mL (≈ 32.5 µM)
MIC (Enterococcus faecalis; [7]): 32 µg/mL (≈ 65 µM)
MIC (Staphylococcus aureus [2]; [8]): 8 µg/mL (≈ 16.2 µM)
MIC (Moraxella catarrhalis; [9]): 32 µg/mL (≈ 65 µM)
MIC (Pseudomonas aeruginosa; [10]): 32 µg/mL (≈ 65 µM)
MIC (Acinetobacter baumannii; [11]): 32 µg/mL (≈ 65 µM)
IC50 [3]: > 60 µM
MIC (Enterococcus faecium; [12]): 32 µg/mL (≈ 65 µM)
Ratio (Staphylococcus aureus [4]): <4

CN1CCOc2ccc(CNC34CCC(C[C@]5(O)Cn6c(=O)ccc7ncc(F)c5c76)(CC3)OC4)nc21
IC50 [1]: > 60 µM
MIC (Escherichia coli; [5]): 32 µg/mL (≈ 63 µM)
MIC (Streptococcus pneumoniae; [6]): 8 µg/mL (≈ 15.8 µM)
MIC (Enterococcus faecalis; [7]): 32 µg/mL (≈ 63 µM)
MIC (Staphylococcus aureus [2]; [8]): 4 µg/mL (≈ 7.88 µM)
MIC (Pseudomonas aeruginosa; [10]): 32 µg/mL (≈ 63 µM)
MIC (Acinetobacter baumannii; [11]): 32 µg/mL (≈ 63 µM)
IC50 [3]: > 60 µM
MIC (Enterococcus faecium; [12]): 32 µg/mL (≈ 63 µM)
Ratio (Staphylococcus aureus [4]): <4

CC1COc2cc(CNC34CCC(C[C@]5(O)Cn6c(=O)ccc7ncc(F)c5c76)(CC3)OC4)ncc2O1 (stereo in doubt; 19)
MIC (Escherichia coli; [5]): 32 µg/mL (≈ 62.9 µM)
MIC (Streptococcus pneumoniae): 4 µg/mL (≈ 7.87 µM)
MIC (Enterococcus faecalis; [7]): 16 µg/mL (≈ 31.5 µM)
MIC (Staphylococcus aureus [2]): 2 µg/mL (≈ 3.93 µM)
MIC (Moraxella catarrhalis; [9]): 4 µg/mL (≈ 7.87 µM)
MIC (Pseudomonas aeruginosa; [10]): 32 µg/mL (≈ 62.9 µM)
MIC (Acinetobacter baumannii; [11]): 16 µg/mL (≈ 31.5 µM)
MIC (Enterococcus faecium; [12]): 32 µg/mL (≈ 62.9 µM)
MIC (Haemophilus influenzae; [13]): 32 µg/mL (≈ 62.9 µM)
Ratio (Staphylococcus aureus [4]): <4

CC1COc2cc(CNC34CCC(C[C@]5(O)Cn6c(=O)ccc7ncc(F)c5c76)(CC3)OC4)ncc2O1 (stereo in doubt; 20)
IC50 [1]: > 60 µM
MIC (Escherichia coli): 32 µg/mL (≈ 62.9 µM)
MIC (Streptococcus pneumoniae; [6]): 2 µg/mL (≈ 3.93 µM)
MIC (Enterococcus faecalis): 8 µg/mL (≈ 15.7 µM)
MIC (Staphylococcus aureus [2]; [8]): 1 µg/mL (≈ 1.97 µM)
MIC (Moraxella catarrhalis): 2 µg/mL (≈ 3.93 µM)
MIC (Pseudomonas aeruginosa): 32 µg/mL (≈ 62.9 µM)
MIC (Acinetobacter baumannii): 16 µg/mL (≈ 31.5 µM)
IC50 [3]: > 60 µM
MIC (Enterococcus faecium): 32 µg/mL (≈ 62.9 µM)
MIC (Haemophilus influenzae): 16 µg/mL (≈ 31.5 µM)

CC1COc2cnc(CNC34CCC(C[C@]5(O)Cn6c(=O)ccc7ncc(F)c5c76)(CC3)OC4)cc2O1 (stereo in doubt; 21)
MIC (Escherichia coli; [5]): 32 µg/mL (≈ 62.9 µM)
MIC (Streptococcus pneumoniae): 2 µg/mL (≈ 3.93 µM)
MIC (Enterococcus faecalis; [7]): 16 µg/mL (≈ 31.5 µM)
MIC (Staphylococcus aureus [2]): 4 µg/mL (≈ 7.87 µM)
MIC (Moraxella catarrhalis; [9]): 32 µg/mL (≈ 62.9 µM)
MIC (Pseudomonas aeruginosa; [10]): 32 µg/mL (≈ 62.9 µM)
MIC (Acinetobacter baumannii; [11]): 32 µg/mL (≈ 62.9 µM)
MIC (Enterococcus faecium; [12]): 32 µg/mL (≈ 62.9 µM)
MIC (Haemophilus influenzae; [13]): 32 µg/mL (≈ 62.9 µM)

CC1COc2cnc(CNC34CCC(C[C@]5(O)Cn6c(=O)ccc7ncc(F)c5c76)(CC3)OC4)cc2O1 (stereo in doubt; 22)
MIC (Escherichia coli): 32 µg/mL (≈ 62.9 µM)
MIC (Streptococcus pneumoniae; [6]): 4 µg/mL (≈ 7.87 µM)
MIC (Enterococcus faecalis): 32 µg/mL (≈ 62.9 µM)
MIC (Staphylococcus aureus [2]; [8]): 4 µg/mL (≈ 7.87 µM)
MIC (Moraxella catarrhalis): 32 µg/mL (≈ 62.9 µM)
MIC (Pseudomonas aeruginosa): 32 µg/mL (≈ 62.9 µM)
MIC (Acinetobacter baumannii): 32 µg/mL (≈ 62.9 µM)
MIC (Enterococcus faecium): 32 µg/mL (≈ 62.9 µM)
MIC (Haemophilus influenzae): 32 µg/mL (≈ 62.9 µM)
